This note sets out measurements from ChEMBL document CHEMBL1909046, “DrugMatrix in vitro pharmacology data”.

Assay [1] has as its target T1, Muscarinic acetylcholine receptor M5 (Homo sapiens, UniProt P08912). Note: in other assays of this panel Not Active means under 50% inhibition at 10 µM.
T1 sequence (P08912 whole entry): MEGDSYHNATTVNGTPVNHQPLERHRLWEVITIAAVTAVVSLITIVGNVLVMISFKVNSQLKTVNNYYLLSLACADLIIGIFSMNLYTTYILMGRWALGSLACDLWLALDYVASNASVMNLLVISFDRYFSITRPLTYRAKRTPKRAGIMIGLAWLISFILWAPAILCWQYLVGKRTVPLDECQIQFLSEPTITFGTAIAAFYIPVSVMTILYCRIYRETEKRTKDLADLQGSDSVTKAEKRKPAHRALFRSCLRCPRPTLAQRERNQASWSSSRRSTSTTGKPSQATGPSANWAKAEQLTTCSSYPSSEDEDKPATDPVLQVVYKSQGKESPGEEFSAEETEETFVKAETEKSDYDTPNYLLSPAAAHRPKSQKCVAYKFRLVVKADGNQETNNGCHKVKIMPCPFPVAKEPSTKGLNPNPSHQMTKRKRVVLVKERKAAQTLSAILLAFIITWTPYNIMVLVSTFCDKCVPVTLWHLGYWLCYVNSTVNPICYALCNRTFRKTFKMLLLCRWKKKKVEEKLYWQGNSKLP
It counts as cell membranes, CHO-K1, Membrane. The conditions noted are these: cho-k1.

Assay [2] deals with T2, 5-hydroxytryptamine receptor 2C (Homo sapiens, UniProt P28335).
T2 sequence (P28335 whole entry): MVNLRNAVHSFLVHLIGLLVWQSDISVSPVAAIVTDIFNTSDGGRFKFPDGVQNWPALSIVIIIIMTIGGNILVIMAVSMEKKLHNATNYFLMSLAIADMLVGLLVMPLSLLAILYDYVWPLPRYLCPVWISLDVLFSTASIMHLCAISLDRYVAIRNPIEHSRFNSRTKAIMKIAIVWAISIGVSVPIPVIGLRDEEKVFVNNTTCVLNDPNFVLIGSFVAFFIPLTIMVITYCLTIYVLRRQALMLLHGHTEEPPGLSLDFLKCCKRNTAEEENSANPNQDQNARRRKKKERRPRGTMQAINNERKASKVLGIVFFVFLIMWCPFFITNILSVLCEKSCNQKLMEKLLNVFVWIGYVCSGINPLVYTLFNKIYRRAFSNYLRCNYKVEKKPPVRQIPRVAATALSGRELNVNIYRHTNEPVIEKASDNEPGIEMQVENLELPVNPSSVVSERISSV
Kind of assay: DRUGMATRIX: Serotonin (5-Hydroxytryptamine) 5-HT2C radioligand binding (ligand: [3H] Mesulergine). The assay is classed as cell membranes, CHO-K1, Membrane. The conditions noted are these: Not Active = under 50% inhibition at 10 µM.

Assay [3] deals with T3, Adenosine receptor A3 (Homo sapiens, UniProt P0DMS8).
T3 sequence (P0DMS8 whole entry): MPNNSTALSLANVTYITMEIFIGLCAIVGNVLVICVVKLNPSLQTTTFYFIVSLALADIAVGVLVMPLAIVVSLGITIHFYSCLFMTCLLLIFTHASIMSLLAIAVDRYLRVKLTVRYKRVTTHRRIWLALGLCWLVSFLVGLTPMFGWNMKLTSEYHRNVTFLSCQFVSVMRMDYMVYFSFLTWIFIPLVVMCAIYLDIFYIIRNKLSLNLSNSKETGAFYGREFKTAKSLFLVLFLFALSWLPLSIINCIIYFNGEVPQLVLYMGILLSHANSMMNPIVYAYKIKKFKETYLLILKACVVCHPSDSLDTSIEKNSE
The assay is classed as cell membranes, CHO-K1, Membrane. The settings on record: cho-k1.

A short description of assay [4]: DRUGMATRIX: GABAA, Flunitrazepam, Central radioligand binding (ligand: [3H] Flunitrazepam). The assay is classed as cell membranes, Rattus norvegicus, Wistar, Brain, Membrane. The conditions noted are these: Not Active = under 50% inhibition at 10 µM.

For `Cc1c(OCC(F)(F)F)ccnc1C[S+]([O-])c1nc2ccccc2[nH]1` (stereo unspecified) [LANSOPRAZOLE], the IC50 result in assay [1], in assay [2] (cho-k1), in assay [3] and in assay [4] was “Not Active” in each case. Moreover, the Ki result in assay [4] is on record as “Not Active”.

In the case of `O=c1cc(N2CCOCC2)oc2c(-c3ccccc3)cccc12` [LY-294002], the concentration for half-maximal inhibition (IC50) result is “Not Active” in assay [1], 1000 nM in assay [2] (read-out: IC50), “Not Active” in assay [3] and 21400 nM in assay [4] (read-out: IC50). In addition, the Ki in assay [2] (read-out: Ki) amounted to 525 nM; in assay [4] (read-out: Ki) it was 17400 nM.

`COc1ccc2[nH]cc(CCNC(C)=O)c2c1` [MELATONIN]: the IC50 result in assay [1], in assay [2] (cho-k1), in assay [3] and in assay [4] was “Not Active” each time. The Ki result in assay [4] is “Not Active”.

In the case of `NC(=O)C[S+]([O-])C(c1ccccc1)c1ccccc1` (stereo unspecified) [MODAFINIL], the IC50 entry in assay [1], in assay [2] (cho-k1), in assay [3] and in assay [4] was “Not Active” throughout. In assay [4], the Ki entry was “Not Active”.

Turning to `CCN(CC)CCOCCC1=CCC2CC1C2(C)C` (stereo unspecified) [MYRTECAINE], the IC50 result in assay [1], in assay [2] (cho-k1), in assay [3] and in assay [4] was “Not Active” in each case. Besides, the Ki entry in assay [4] was “Not Active”.

In the case of `O=C(O)c1cccnc1Nc1cccc(C(F)(F)F)c1` [NIFLUMIC ACID], the IC50 entry in assay [1], in assay [2] (cho-k1), in assay [3] and in assay [4] was “Not Active” in each case. Besides, the inhibition constant (Ki) entry in assay [4] was “Not Active”.

Regarding `O=C(N/N=C/c1ccc([N+](=O)[O-])o1)c1cc([N+](=O)[O-])cc([N+](=O)[O-])c1O` [NIFURSOL], the IC50 entry in assay [1], in assay [2] (cho-k1), in assay [3] and in assay [4] was “Not Active” each time. In addition, the Ki entry in assay [4] is recorded as “Not Active”.

`COC(=O)Nc1nc2ccc(C(=O)c3cccs3)cc2[nH]1` [NOCODAZOLE]: the half-inhibitory concentration (IC50) result in assay [1], in assay [2] (cho-k1), in assay [3] and in assay [4] was “Not Active” each time. Moreover, the Ki entry in assay [4] is reported as “Not Active”.

Regarding `C#CC1(O)CC[C@H]2[C@@H]3CCC4=CC(=O)CC[C@@H]4[C@H]3CC[C@@]21CC` (stereo partly specified) [NORGESTREL], the IC50 entry in assay [1] was “Not Active”; in assay [2] (cho-k1), “Not Active”; in assay [3], “Not Active”; in assay [4] (read-out: IC50), 2360 nM. The Ki in assay [4] (read-out: Ki) turned out to be 1920 nM.

For the compound `COC(=O)Nc1nc2ccc([S+]([O-])c3ccccc3)cc2[nH]1` (stereo unspecified) [OXFENDAZOLE], the IC50 entry in assay [1], in assay [2] (cho-k1), in assay [3] and in assay [4] was “Not Active” in each case. Further, in assay [4], the Ki result is reported as “Not Active”.

As to `CC(=O)O[C@H]1C(=O)[C@@]2(C)[C@H]([C@H](OC(=O)c3ccccc3)[C@]3(O)C[C@H](OC(=O)[C@H](O)[C@@H](NC(=O)c4ccccc4)c4ccccc4)C(C)=C1C3(C)C)[C@]1(OC(C)=O)CO[C@@H]1C[C@@H]2O` [PACLITAXEL], the 50% inhibitory concentration (IC50) entry in assay [1], in assay [2] (cho-k1), in assay [3] and in assay [4] was “Not Active” in each case. Moreover, the Ki result in assay [4] is “Not Active”.

With `C[n+]1ccc(-c2cc[n+](C)cc2)cc1.[Cl-].[Cl-]` [PARAQUAT DICHLORIDE], the IC50 result in assay [1], in assay [2] (cho-k1), in assay [3] and in assay [4] was “Not Active” each time. Besides, the Ki result in assay [4] is “Not Active”.

With `CC(C)NCC(O)COc1cccc2[nH]ccc12` (stereo unspecified) [PINDOLOL], the IC50 result in assay [1], in assay [2] (cho-k1), in assay [3] and in assay [4] was “Not Active” each time. In addition, the Ki result in assay [4] was “Not Active”.

With `CCn1cc(C(=O)O)c(=O)c2cnc(N3CCCC3)nc21` [PIROMIDIC ACID], the IC50 entry in assay [1], in assay [2] (cho-k1), in assay [3] and in assay [4] was “Not Active” in each case. Besides, the Ki entry in assay [4] is “Not Active”.

As to `C[n+]1ccccc1/C=N/O.[Cl-]` [PRALIDOXIME CHLORIDE], the 50% inhibitory concentration (IC50) result in assay [1], in assay [2] (cho-k1), in assay [3] and in assay [4] was “Not Active” throughout. For the same compound, the inhibition constant Ki result in assay [4] is given as “Not Active”.

In the case of `COc1cc2nc(N3CCN(C(=O)c4ccco4)CC3)nc(N)c2cc1OC` [PRAZOSIN], the IC50 entry in assay [1], in assay [2] (cho-k1), in assay [3] and in assay [4] was “Not Active” throughout. Besides, the Ki entry in assay [4] is “Not Active”.

Regarding `C[C@]12C=CC(=O)C=C1CC[C@@H]1[C@@H]2[C@@H](O)C[C@@]2(C)[C@H]1CC[C@]2(O)C(=O)CO` [PREDNISOLONE], the half-maximal inhibitory concentration (IC50) entry in assay [1], in assay [2] (cho-k1), in assay [3] and in assay [4] was “Not Active” each time. Besides, the inhibition constant Ki result in assay [4] is given as “Not Active”.

Regarding `CC(=O)[C@H]1[C@H](C#N)C[C@H]2[C@@H]3CC=C4C[C@@H](O)CC[C@]4(C)[C@H]3CC[C@@]21C` [PREGNENOLONE CARBONITRILE], the IC50 entry in assay [1], in assay [2] (cho-k1), in assay [3] and in assay [4] was “Not Active” each time. Also, the Ki result in assay [4] is on record as “Not Active”.

As for `CCCN(CCC)S(=O)(=O)c1ccc(C(=O)O)cc1` [PROBENECID], the IC50 result in assay [1], in assay [2] (cho-k1), in assay [3] and in assay [4] was “Not Active” throughout. Also, the Ki result in assay [4] is “Not Active”.

Turning to `CCCOc1ccc(C(=O)OCCN(CC)CC)cc1N` [PROPARACAINE], the IC50 entry in assay [1], in assay [2] (cho-k1), in assay [3] and in assay [4] was “Not Active” in each case. Further, in assay [4], the inhibition constant (Ki) entry is recorded as “Not Active”.

On to `CC(C)c1cccc(C(C)C)c1O` [PROPOFOL], for which the IC50 entry in assay [1] is “Not Active”; in assay [2] (read-out: IC50), 11600 nM; in assay [3] it was “Not Active”; in assay [4], “Not Active”. Also, the Ki in assay [2] (read-out: Ki) is 6050 nM; in assay [4], “Not Active”.

With `C[C@@H]1O[C@@H](O[C@@H]2C=C3CC[C@@H]4[C@H](CC[C@]5(C)[C@@H](c6ccc(=O)oc6)CC[C@]45O)[C@@]3(C)CC2)[C@H](O)[C@H](O)[C@H]1O` [PROSCILLARIDIN], the 50% inhibitory concentration (IC50) result in assay [1], in assay [2] (cho-k1), in assay [3] and in assay [4] was “Not Active” in each case. The Ki entry in assay [4] is given as “Not Active”.

Consider `Oc1cccc(O)c1O` [PYROGALLOL], for which the half-inhibitory concentration (IC50) entry in assay [1], in assay [2] (cho-k1), in assay [3] and in assay [4] was “Not Active” in each case. Besides, in assay [4], the Ki result is recorded as “Not Active”.

On to AURANOFIN, for which the IC50 result is “Not Active” in assay [1], “Not Active” in assay [2] (cho-k1), 1690 nM in assay [3] (read-out: IC50) and “Not Active” in assay [4]. Besides, the inhibition constant Ki result was “Not Active” in assay [1], “Not Active” in assay [2] (cho-k1), 954 nM in assay [3] (read-out: Ki) and “Not Active” in assay [4].

As for GADOPENTETATE DIMEGLUMINE, the half-inhibitory concentration (IC50) entry in assay [1], in assay [2] (cho-k1), in assay [3] and in assay [4] was “Not Active” in each case. For the same compound, the Ki result in assay [1], in assay [2] (cho-k1), in assay [3] and in assay [4] was “Not Active” each time.

On to GENTAMICIN, for which the IC50 result in assay [1], in assay [2] (cho-k1), in assay [3] and in assay [4] was “Not Active” in each case. Besides, the Ki result in assay [1], in assay [2] (cho-k1), in assay [3] and in assay [4] was “Not Active” each time.

As a reminder, the IC50 is the concentration that gives 50% inhibition. For orientation: Ki means the dissociation constant of the complex between target and ligand, obtained from inhibition or displacement.
